# Measured values reported in the supplement of paper PMC10307832.
# What was measured:
# Test in all cases: relative viability (nuclei count vs DMSO), 5 days (fraction); higher = more cells survive
# [1] = tested on: HCC-366
# In short: (§1)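 Lung cancer cell lines in 1536-well plates were dosed by pin tool the day after seeding, either with one drug alone or with a fixed anchor-drug dose plus five library-drug doses (not always all listed) in √10 steps. After 5 days, cells were fixed and their nuclei stained in one step (final 0.05% Triton X-100, 1% formaldehyde, 1 ug/ml Hoechst), then counted on 4× images. Relative viability is the nuclei count in treated wells divided by that in vehicle wells. Values are medians of duplicate plates.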
# [2] = tested on: LK-2
# In short: as §1
# [3] = tested on: HARA
# In short: as §1
# [4] = tested on: NCI-H441
# In short: as §1
# [5] = tested on: CAL-12T
# In short: as §1
# [6] = tested on: EMC-BAC-2
# In short: as §1
# [7] = tested on: NCI-H1437
# In short: as §1
# [8] = tested on: UMC-11
# In short: as §1
# [9] = tested on: HOP-62
# In short: as §1
# [10] = tested on: NCI-H3122
# In short: as §1
# [11] = tested on: NCI-H2347
# In short: as §1
# [12] = tested on: NCI-H596
# In short: as §1
# [13] = tested on: NCI-H1734
# In short: as §1
# [14] = tested on: NCI-H727
# In short: as §1
# [15] = tested on: COR-L23
# In short: as §1
# [16] = tested on: NCI-H1651
# In short: as §1
# [17] = tested on: RERF-LC-KJ
# In short: as §1
# [18] = tested on: NCI-H1650
# In short: as §1
# [19] = tested on: PC-3 [JPC-3]
# In short: as §1
# [20] = tested on: NCI-H1755
# In short: as §1
# [21] = tested on: SK-LU-1
# In short: as §1
compound,measurement,setting,value
CN1CCN(CCOc2cc(OC3CCOCC3)c3c(Nc4c(Cl)ccc5c4OCO5)ncnc3c2)CC1 [Saracatinib] + CC(=O)Nc1cccc(-n2c(=O)n(C3CC3)c(=O)c3c(Nc4ccc(I)cc4F)n(C)c(=O)c(C)c32)c1 [Trametinib] (partner 0.02 µM),relative viability,[1]; first compound 0.02 µM,0.337
same,relative viability,[1]; first compound 0.2 µM,0.128
same,relative viability,[1]; first compound 0.6325 µM,0.216
same,relative viability,[1]; first compound 2 µM,0.202
same,relative viability,[2]; first compound 0.02 µM,0.725
same,relative viability,[2]; first compound 0.2 µM,0.736
same,relative viability,[2]; first compound 0.6325 µM,0.722
same,relative viability,[2]; first compound 2 µM,0.614
same,relative viability,[3]; first compound 0.02 µM,0.688
same,relative viability,[3]; first compound 0.2 µM,0.624
same,relative viability,[3]; first compound 0.6325 µM,0.836
same,relative viability,[3]; first compound 2 µM,0.344
same,relative viability,[4]; first compound 0.02 µM,0.514
same,relative viability,[4]; first compound 0.2 µM,0.487
same,relative viability,[4]; first compound 0.6325 µM,0.507
same,relative viability,[4]; first compound 2 µM,0.339
same,relative viability,[5]; first compound 0.02 µM,0.394
same,relative viability,[5]; first compound 0.2 µM,0.373
same,relative viability,[5]; first compound 0.6325 µM,0.475
same,relative viability,[5]; first compound 2 µM,0.323
same,relative viability,[6]; first compound 0.02 µM,0.896
same,relative viability,[6]; first compound 0.2 µM,0.97
same,relative viability,[6]; first compound 0.6325 µM,1.11
same,relative viability,[6]; first compound 2 µM,0.901
same,relative viability,[7]; first compound 0.02 µM,0.652
same,relative viability,[7]; first compound 0.2 µM,0.538
same,relative viability,[7]; first compound 0.6325 µM,0.733
same,relative viability,[7]; first compound 2 µM,0.538
same,relative viability,[8]; first compound 0.02 µM,0.763
same,relative viability,[8]; first compound 0.2 µM,0.586
same,relative viability,[8]; first compound 0.6325 µM,0.911
same,relative viability,[8]; first compound 2 µM,0.641
same,relative viability,[9]; first compound 0.02 µM,0.412
same,relative viability,[9]; first compound 0.2 µM,0.455
same,relative viability,[9]; first compound 0.6325 µM,0.441
same,relative viability,[9]; first compound 2 µM,0.398
same,relative viability,[10]; first compound 0.02 µM,0.212
same,relative viability,[10]; first compound 0.2 µM,0.163
same,relative viability,[10]; first compound 0.6325 µM,0.154
same,relative viability,[10]; first compound 2 µM,0.155
same,relative viability,[11]; first compound 0.02 µM,0.265
same,relative viability,[11]; first compound 0.2 µM,0.265
same,relative viability,[11]; first compound 0.6325 µM,0.379
same,relative viability,[11]; first compound 2 µM,0.277
same,relative viability,[12]; first compound 0.02 µM,0.636
same,relative viability,[12]; first compound 0.2 µM,0.722
same,relative viability,[12]; first compound 0.6325 µM,0.648
same,relative viability,[12]; first compound 2 µM,0.584
same,relative viability,[13]; first compound 0.02 µM,0.7
same,relative viability,[13]; first compound 0.6325 µM,0.645
same,relative viability,[13]; first compound 2 µM,0.611
same,relative viability,[14]; first compound 0.02 µM,0.369
same,relative viability,[14]; first compound 0.2 µM,0.402
same,relative viability,[14]; first compound 0.6325 µM,0.379
same,relative viability,[14]; first compound 2 µM,0.308
same,relative viability,[15]; first compound 0.02 µM,0.58
same,relative viability,[15]; first compound 0.2 µM,0.53
same,relative viability,[15]; first compound 0.6325 µM,0.574
same,relative viability,[15]; first compound 2 µM,0.559
same,relative viability,[16]; first compound 0.02 µM,0.837
same,relative viability,[16]; first compound 0.2 µM,0.593
same,relative viability,[16]; first compound 0.6325 µM,0.907
same,relative viability,[16]; first compound 2 µM,0.877
same,relative viability,[17]; first compound 0.02 µM,0.907
same,relative viability,[17]; first compound 0.2 µM,0.869
same,relative viability,[17]; first compound 0.6325 µM,0.916
same,relative viability,[17]; first compound 2 µM,0.687
same,relative viability,[18]; first compound 0.02 µM,0.528
same,relative viability,[18]; first compound 0.2 µM,0.438
same,relative viability,[18]; first compound 0.6325 µM,0.505
same,relative viability,[18]; first compound 2 µM,0.291
same,relative viability,[19]; first compound 0.02 µM,0.758
same,relative viability,[19]; first compound 0.2 µM,0.587
same,relative viability,[19]; first compound 0.6325 µM,0.534
same,relative viability,[19]; first compound 2 µM,0.494
same,relative viability,[20]; first compound 0.02 µM,0.724
same,relative viability,[20]; first compound 0.2 µM,0.714
same,relative viability,[20]; first compound 0.6325 µM,0.75
same,relative viability,[20]; first compound 2 µM,0.694
same,relative viability,[21]; first compound 0.02 µM,0.51
same,relative viability,[21]; first compound 0.2 µM,0.364
same,relative viability,[21]; first compound 0.6325 µM,0.375
same,relative viability,[21]; first compound 2 µM,0.301
